Results as given in the supplement of paper PMC10878532, “Sperm Toolbox—A selection of small molecules to study human spermatozoa” (PLOS ONE, 2024).

Legend:
HepG2 = HepG2 toxicity (resazurin), effect normalised to DMSO (DMSO = 0); higher = more features changed / larger toxic effect; details: incubation time: 70h incubation
HeLa [1] = assay: HeLa toxicity: nuclei-count effect normalised to DMSO (DMSO = 0); higher = more features changed / larger toxic effect; details: incubation time: 24h incubation
HeLa [2] = assay: Cell Painting percent induction (share of features beyond 2 z-scores vs DMSO); higher = more features changed / larger toxic effect; extreme values may be limits of the assay; details: incubation time: 24h incubation
human spermatozoa [3] = assay: total motile sperm, percent change vs DMSO (non-capacitating); higher = more of the measured sperm population than DMSO, for viability, fewer PI-positive (dead) cells than DMSO
human spermatozoa [4] = assay: viability fold change, 1 - (PI-positive fraction / DMSO median); higher = more of the measured sperm population than DMSO, for viability, fewer PI-positive (dead) cells than DMSO; details: incubation time: 3h, non-capacitating
human spermatozoa [5] = assay: progressively motile sperm, percent change vs DMSO (capacitating); higher = more of the measured sperm population than DMSO, for viability, fewer PI-positive (dead) cells than DMSO; details: incubation time: 30min incubation
human spermatozoa [6] = assay: hyperactivated motile sperm, percent change vs DMSO (capacitating); higher = more of the measured sperm population than DMSO, for viability, fewer PI-positive (dead) cells than DMSO; details: incubation time: 30min incubation
human spermatozoa [7] = assay: change in acrosome-reacted (PNA+) sperm vs DMSO, no agonist (capacitating); higher = more of the measured sperm population than DMSO, for viability, fewer PI-positive (dead) cells than DMSO; details: incubation time: 3h
human spermatozoa [8] = assay: acrosome-reacted (PNA+) sperm after agonist cocktail, percent change vs DMSO (capacitating); higher = more of the measured sperm population than DMSO, for viability, fewer PI-positive (dead) cells than DMSO; details: incubation time: 3h, capacitating + agonist cocktail 1h
human spermatozoa [9] = assay: progressively motile sperm, percent change vs DMSO (non-capacitating); higher = more of the measured sperm population than DMSO, for viability, fewer PI-positive (dead) cells than DMSO; extreme values may be limits of the assay
[10] = incubation time: 10min incubation, 9.99 µM
[11] = incubation time: 10min incubation, 29.9 µM
[12] = incubation time: 3h incubation, 9.99 µM
[13] = incubation time: 3h incubation, 29.9 µM
[14] = incubation time: 6h incubation, 9.99 µM
[15] = incubation time: 6h incubation, 29.9 µM
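Wherever progressively motile sperm, percent change vs DMSO (non-capacitating) is given: pooled live human sperm from at least 3 donors, tracked by automated microscopy in 0.5 s time-lapse movies, compounds at 10 and 30 µM, versus median of 16 DMSO wells per plate.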
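Wherever total motile sperm, percent change vs DMSO (non-capacitating) is given: sperm pooled from at least 3 donors, tracked in 0.5 s time-lapse movies by automated microscopy after 10 min, 3 h or 6 h with compound at 10 or 30 µM.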

| SMILES | HepG2 toxicity (HepG2; 10 µM) | HepG2 toxicity (HepG2; 30 µM) | HeLa toxicity: nuclei-count effect normalised (HeLa [1]; 9.99 µM) | HeLa toxicity: nuclei-count effect normalised (HeLa [1]; 29.9 µM) | Cell Painting percent induction (HeLa [2]; 9.99 µM) | Cell Painting percent induction (HeLa [2]; 29.9 µM) | total motile sperm (human spermatozoa [3]; [10]) | total motile sperm (human spermatozoa [3]; [11]) | total motile sperm (human spermatozoa [3]; [12]) | total motile sperm (human spermatozoa [3]; [13]) | total motile sperm (human spermatozoa [3]; [14]) | total motile sperm (human spermatozoa [3]; [15]) | viability fold change (human spermatozoa [4]; 9.99 µM) | viability fold change (human spermatozoa [4]; 29.9 µM) | progressively motile sperm (human spermatozoa [5]; 9.99 µM) | progressively motile sperm (human spermatozoa [5]; 29.9 µM) | hyperactivated motile sperm (human spermatozoa [6]; 9.99 µM) | hyperactivated motile sperm (human spermatozoa [6]; 29.9 µM) | change in acrosome-reacted (human spermatozoa [7]; 9.99 µM) | change in acrosome-reacted (human spermatozoa [7]; 29.9 µM) | acrosome-reacted (human spermatozoa [8]; 9.99 µM) | acrosome-reacted (human spermatozoa [8]; 29.9 µM) | progressively motile sperm (human spermatozoa [9]; [10]) | progressively motile sperm (human spermatozoa [9]; [11]) | progressively motile sperm (human spermatozoa [9]; [12]) | progressively motile sperm (human spermatozoa [9]; [13]) | progressively motile sperm (human spermatozoa [9]; [14]) | progressively motile sperm (human spermatozoa [9]; [15]) |
| --- | --- | --- | --- | --- | --- | --- | --- | --- | --- | --- | --- | --- | --- | --- | --- | --- | --- | --- | --- | --- | --- | --- | --- | --- | --- | --- | --- | --- |
| COc1cn(-c2ccc(-n3cccn3)cc2F)nc(-c2ccnn2-c2ccccc2)c1=O [Tak-063] | -4.05% | 8.05% | 6.28% | 2.94% | 1.19% | 3.31% | -3.81% | -3.32% | -11% | -14.9% | -15.5% | -20.7% | -1.78 | -1.87 | 4.06% | 10.1% | 321% | 303% | 0.708% | 0.393% | 114% | 117% | 26.4% | 27.7% | 64.8% | 48.7% | 74.2% | 44% |
| CCOc1ccccc1OCCN[C@H](C)Cc1ccc(OC)c(S(N)(=O)=O)c1 [Tamsulosin] | -2.54% | 9.76% | -2.07% | 2.87% | 0% | 0% | 4.75% | 4.64% | 1.09% | 4.59% | 2.47% | 0.434% | -0.468 | -0.658 | 7.35% | 14.8% | 26% | 16.1% | 0.811% | 1.12% | 8.46% | 14.3% | 3.42% | 13.4% | 17.3% | 20.7% | 23.6% | 26.5% |
| O=c1sn(-c2cccc3ccccc23)c(=O)n1Cc1ccccc1 [Tideglusib] | -4.62% | 4.74% | -2.47% | 7.35% | 0.036% | 0% | 2.52% | 3.97% | -5.07% | 0.868% | -6.75% | -2.88% | -1.71 | -1.3 | 9.17% | 6.85% | 17.7% | -11.8% | 0.723% | 0.984% | 5.65% | 6.56% | 4.02% | 2.42% | -2.59% | -0.339% | -4% | -0.265% |
